# Measurements published in patent US20190060284A1, “PHARMACOLOGICAL MODULATORS OF NAV1.1 VOLTAGE-GATED SODIUM CHANNELS ASSOCIATED WITH MECHANICAL PAIN” (priority 2016, published 2019).
# “Also recorded” adds a separate entry of the source. Where two headings read alike, the source gives them in different places.
# What was measured:
# [1] = system: splanchnic colonic afferents (high-threshold mechanoreceptors); test: Ex vivo gut-nerve single-unit recordings; format: cell-based, mouse; details: for mechanosensitivity of colonic nociceptors: Compound B 100 μM; for Hm1a-induced mechanical hypersensitivity in the presence of the blocker: Hm1a 100 nM, ICA 500 nM or Compound B 100 μM
# Protocol: In vitro single-unit extracellular recordings of action potential discharge were made from splanchnic colonic afferents. Recordings were made from healthy or CVH mice using standard protocols^61-63. Baseline mechanosensitivity was determined in response to application of a 2 g von frey hair (vfh) probe to the afferent receptive field for 3 seconds. This process was repeated 3-4 times, separated each time by 10 seconds. Mechanosensitivity was then re-tested after the application of Hm1a (100 nM) or the Nav1.1 blocker ICA-121432 (500 nM) or a combination of both ICA-121432 (500 nM) and Hm1a (100 nM). Data are presented as spikes/s and are expressed as mean±SEM.
# Colitis was induced by administration of TNBS as described previously^62,63. Briefly, 13 week old anaesthetized mice were administered an intra-colonic enema of 0.1 mL TNBS (130 μg/mL in 30% EtOH) via a polyethylene catheter^62,63,66. Histological examination of mucosal architecture, cellular infiltrate, crypt abscesses, and goblet cell depletion confirmed significant TNBS-induced damage by day 3 post-treatment, which largely recovered by day 7, and fully recovered by 28 days. […] As such, they are termed ‘chronic visceral hypersensitivity’ (CVH) mice^62,63,66,68.
# Ex vivo single-unit extracellular recordings of action potential discharge were made from splanchnic colonic afferents. Recordings were made from healthy or CVH mice using standard protocols (e.g. Brierley, S. M., Jones, R. C., III, Gebhart, G. F. & Blackshaw, L. A. Splanchnic and pelvic mechanosensory afferents signal different qualities of colonic stimuli in mice. Gastroenterology 127, 166-178 (2004)). Baseline mechanosensitivity was determined in response to application of a 2-g Von Frey hair probe to the afferent receptive field for 3 s. This process was repeated 3-4 times, separated each time by 10 s. Mechanosensitivity was then re-tested after the application of Hm1a (100 nM) or the Nav1.1 blocker compound B (100 μM) or a combination thereof. Instantaneous frequency is defined as the inverse of the time interval between an action potential and the previous action potential. Group data are presented as spikes per second and are expressed as mean±s.e.m.
# [2] = system: NTG induced mechanical allodynia; test: NTG-induced hind paw mechanical allodynia (migraine model); format: in vivo, mouse; details: for allodynia threshold compared to baseline threshold: 75 and 120 min
# Protocol: NTG-induced hind paw mechanical allodynia. Mechanical thresholds were determined with von Frey monofilaments (VFF; eight filaments, range 0.008-2 g, Stoelting Co) using the Dixon up-and-down method^51. For drug testing, 48 naive C57Bl/6 male mice (20-30 g) were divided randomly to the following groups (n=12 mice per group): Vehicle/Cyclodextrin, Vehicle/Compound B 75 mg/kg, NTG/Cyclodextrin, and NTG/Compound B 75 mg/kg. Prior to testing all animals were handled for 1 week in the behavior room during mid-morning using the cupped hand technique^52. On each testing day, a maximum of 12 animals was used, divided equally into the four groups. Mice were confined in clear acrylic cages (8.7″×8.7″×5″) divided into four chambers, each on a raised wire mesh platform that allowed full access to the tested paws. Mice were acclimated for two hours, on the day of testing and one day prior. Mechanical thresholds were evaluated before (baseline), and 75 and 120 min after i.p. administration of 10 mg/kg NTG (or vehicle), in accordance with NTG's time-to-peak-effect (TPE) in this model (data not shown). 40% Cyclodextrin in saline or 75 mg/kg Compound B dissolved in 40% cyclodextrin in saline, was administered contralateral to NTG administration thirty minutes before the first post-NTG time point, in accordance with compound B's TPE. Each filament was applied perpendicular to the center of each of the hind paw five times, spaced 1 sec apart, starting with the middle VFF (0.4 g). In the absence of a response, the next VFF in the series was applied until a response was witnessed. Response to VFF was recorded as an immediate withdrawal of the tested hind paw to the applied stimulus, with or without an observed licking behavior. The withdrawal threshold was quantified as the mean of both hind paws. The experimenter was blind to the treatment group.
# [3] = system: cultured somatosensory neurons (TG, DRG); test: Ratiometric calcium imaging of cultured sensory neurons; format: cell-based, mice or rats
# [4] = system: mechanical response thresholds; test: Von Frey mechanical response thresholds after intraplantar toxin; format: in vivo, mouse; details: 500 nM in 10 μl intraplantar, WT mice, 30 minutes after injection
# Protocol: For behavioral experiments in FIG. 4, adult mice (6-12 weeks) were used. Male and female mice were first considered separately in hindpaw nocifensive response experiments. […] Therefore, male and female behavioral responses were pooled and subsequent experiments were performed on both male and female mice for CKO and WT littermate experiments, or only male mice for other conditions (e.g. Cap ablation). Nocifensive responses were recorded during a 20 minute observation period immediately following intraplantar injections (10 μl PBS with or without 5 μM Hm1a). Licking/biting behavior was scored as seconds of behavior with the experimenter blinded to injection condition and experimental cohort (WT, CKO or Cap Ablated mice). Hargreaves and Von Frey tests were performed 30 minutes after intraplantar injection of 500 nM Hm1a or Hm1b. I.t. cap ablation was performed as previously described^34, and i.t. cap treated mice were tested on a hot plate to ensure ablation of TRPV1+afferents. Ablation was also confirmed by histology.
# [5] = Hm1a-sensitive P0 mouse TG neurons
molecule,measurement,setting,value
Cc1c(C(N)=O)nnn1Cc1ccccc1 [Compound B],mechanosensitivity of colonic nociceptors,"[1]; CVH mice, ICA-121431 500 nM",reduced mechanosensitivity in a sub-population; also recorded: inhibition of mechanosensitivity of a subpopulation
same,Hm1a-induced mechanical hypersensitivity in the presence of the blocker,[1]; CVH mice,not affected by the presence of Hm1a; also recorded: prevents Hm1a-induced potentiation
same,mechanosensitivity of colonic nociceptors,[1]; healthy mice,inhibits the mechanosensitivity; also recorded: inhibition of mechanosensitivity of a subpopulation
same,Hm1a-induced mechanical hypersensitivity in the presence of the blocker,[1]; healthy mice,inhibits the sensitizing effect of Hm1a toxin; also recorded: prevents Hm1a-induced potentiation
same,NTG induced tactile allodynia,[2]; Compound B 75 mg/kg in 40% cyclodextrin in saline,able to reverse NTG induced tactile allodynia
same,allodynia threshold compared to baseline threshold,[2]; NTG 10 mg/kg i.p. + Compound B 75 mg/kg,no significant difference
same,allodynia threshold compared to baseline threshold,[2]; Vehicle + Compound B 75 mg/kg,no significant difference
O=C(Nc1ccc(S(=O)(=O)Nc2nccs2)cc1)C(c1ccccc1)c1ccccc1 [ICA-121431],Hm1a-evoked calcium responses,"[3]; blocker 500 nM, Hm1a 500 nM, embryonic DRG and P0 mouse TG cultures",greatly diminishes
same,responses to SGTx1,[3]; in presence of ICA-121431,only partially blocks
same,CVH sensitized fibers with reduced mechanosensory responses,"[1]; CVH mice, blocker 500 nM",70%
same,subpopulation of CVH colonic afferents inhibited (inhibited/fibers),"[1]; CVH mice, blocker 500 nM",7/10
same,mechanosensitivity of colonic nociceptors,"[1]; CVH mice, ICA-121431 500 nM",levels resembling those of baseline controls
same,Hm1a-induced mechanical hypersensitivity in the presence of the blocker,[1]; CVH mice,blocks the sensitizing effects of Hm1a
same,Hm1a-induced mechanical hypersensitivity in the presence of the blocker,"[1]; CVH mice, listed as ICA-121432",failed to induce mechanical hypersensitivity
same,fibers in which mechanical responses are reduced and Hm1a sensitization blocked,"[1]; healthy mice, blocker 500 nM",50%
same,population of colonic afferents inhibited (inhibited/fibers),"[1]; healthy mice, blocker 500 nM",5/10
same,Hm1a-induced mechanical hypersensitivity in the presence of the blocker,[1]; healthy mice,blocks Hm1a sensitization
same,Hm1a-induced mechanical hypersensitivity in the presence of the blocker,"[1]; healthy mice, listed as ICA-121432",failed to induce mechanical hypersensitivity
NC1=N[C@H](O)[C@H]2[C@H]3O[C@]4(O)O[C@@H]([C@@H](O)[C@@]2(N1)[C@@H]4O)[C@]3(O)CO [Tetrodotoxin],Hm1a-evoked calcium responses,[3],blocked
COc1cc(CNC(=O)CCCC/C=C/C(C)C)ccc1O [capsaicin],toxin-sensitive P0 neurons that respond to the agonist (in words),[3]; [5],only a third
NC(N)=NC(N)=Nc1cccc(Cl)c1 [mCPBG],toxin-sensitive cells that also respond to the agonist,[3]; [5],52%
CC1CCC(C(C)C)C(O)C1 (centres unmarked) [menthol],toxin-sensitive cells that also respond to the agonist,[3],38%
C=CCN=C=S [mustard oil],toxin-sensitive cells that also respond to the agonist,[3]; [5],< 13%
CCCCC[C@H](O)/C=C/[C@H]1[C@H](O)CC(=O)[C@@H]1C/C=C\CCCC(=O)O [prostaglandin E2],percentage of toxin sensitive cells,[3]; sensitization of adult neurons prior to toxin exposure,greatly enhances
SGTx1,cohort of neurons excited compared with Hm1a,[3]; TG and embryonic DRG neurons,excites a larger cohort of TG and embryonic DRG neurons than Hm1a
δ-theraphotoxin-Hm1b,sensitization to mechanical stimulation,[4],Equivalent mechanical sensitization
